Each structure is given as a SMILES string.

Data set [1] relates to TNF-α. Description: Inhibition of TNF-α production following LPS-stimulation of human PBMC. Type of data set: cell-based. As to conditions: for IC50: human PBMC, LPS-stimulated, in vitro, read-out: IC50 for inhibiting production of TNF-α following LPS-stimulation of PBMC. The text has this:
(§1) In a specific embodiment, inhibitions of TNF-α production following LPS-stimulation of human PBMC and human whole blood by 3-(4-amino-1-oxo-1,3-dihydro-isoindol-2-yl)-piperidine-2,6-dione, 4-(amino)-2-(2,6-dioxo-(3-piperidyl))-isoindoline-1,3-dione or thalidomide were investigated in vitro.

The next data set deals with IL1β. Description: LPS-stimulated production of IL1β by PBMC. It is filed as cell-based.
The next data set relates to mesothelioma patients. Briefly: Clinical studies in unresectable or relapsed mesothelioma patients. Type of data set: in vivo, human. As to conditions: 10 mg as a continuous oral daily dose. The protocol: Clinical trials with the administration of an immunomodulatory compound in an amount of from about 1 mg to about 1,000 mg, from about 1 mg to about 500 mg, or from about 1 mg to about 250 mg per day are conducted in patients with asbestosis, malignant mesothelioma, or malignant pleural effusion mesothelioma syndrome. In a specific embodiment, patients receive about 1 mg to about 150 mg/day of 3-(4-amino-1-oxo-1,3-dihydro-isoindol-2-yl)-piperidine-2,6-dione alone or in combination with vinorelbine. Patients who experience clinical benefit are permitted to continue on treatment.
Other clinical studies are performed using 3-(4-amino-1-oxo-1,3-dihydro-isoindol-2-yl)-piperidine-2,6-dione in unresectable or relapsed mesothelioma patients that have not responded to conventional therapy. In one embodiment, 3-(4-amino-1-oxo-1,3-dihydro-isoindol-2-yl)-piperidine-2,6-dione is administered in an amount of about 1 mg to about 150 mg/day to the patients. Treatment with 10 mg as a continuous oral daily dose is well-tolerated.

The subject of the next data set is IL6. Description: LPS-stimulated production of IL6 by PBMC. Type of data set: cell-based.
The test system of another data set is IL10. Description: LPS-stimulated production of IL10 by PBMC. It is filed as cell-based.
The test system of data set [2] is TNF-α. Briefly: Inhibition of TNF-α production following LPS-stimulation of human whole blood. Type of data set: cell-based. The note with it: LPS-stimulated, in vitro, read-out: IC50 for inhibiting production of TNF-α following LPS-stimulation of human whole blood.
Text: as §1

For data set [3] the following is noted: solvent systems, humidity or heating as worded; cited from earlier work.
The conditions of data set [4]: crystalline polymorph of 3-(4-amino-1-oxo-1,3 dihydro-isoindol-2-yl)-piperidine-2,6-dione; cited from earlier work.

For orientation: IC50 means the point on the concentration scale where inhibition reaches its midpoint. Regarding `O=C1CCC(N2C(=O)c3ccccc3C2=O)C(=O)N1` (racemic) [Thalidomide, thalidomide, reference compound], the IC50 with TNF-α [1] was approximately 194000 nM; in the data set on TNF-α [1] (same value in mass units), approximately 50.1 µg/mL.

Turning to `Nc1cccc2c1CN(C1CCC(=O)NC1=O)C2=O` (stereo not drawn) [3-(4-amino-1-oxo-1,3-dihydro-isoindol-2-yl)-piperidine-2,6-dione], the “Effect on LPS-stimulated production of IL1β by PBMC” value with IL1β is listed as “dose-dependent inhibition”. Further, the Tolerability entry in the data set with mesothelioma patients is recorded as “well-tolerated”. For the same compound, the “Effect on LPS-stimulated production of IL6 by PBMC” value in the data set with IL6 was “dose-dependent inhibition”. The “Effect on LPS-stimulated production of TNF-α by PBMC” value with TNF-α [1] is listed as “dose-dependent inhibition”. Also, the 50% inhibitory concentration (IC50) with TNF-α [1] was approximately 100 nM; with TNF-α [1] (same value in mass units), approximately 0.0259 µg/mL; in the data set on TNF-α [2], approximately 480 nM; in the data set on TNF-α [2] (same value in mass units), approximately 0.104 µg/mL. In the data set on IL10, the “Effect on production of the anti-inflammatory cytokine IL10” value is on record as “increased production”.

`Nc1cccc2c1C(=O)N(C1CCC(=O)NC1=O)C2=O` (stereo not drawn) [4-(amino)-2-(2,6-dioxo(3-piperidyl))-isoindoline-1,3-dione]: the “Effect on LPS-stimulated production of IL1β by PBMC” value in the data set with IL1β is recorded as “dose-dependent inhibition”. Besides, the “Effect on LPS-stimulated production of IL6 by PBMC” value with IL6 is given as “dose-dependent inhibition”. In addition, the “Effect on LPS-stimulated production of TNF-α by PBMC” value with TNF-α [1] is “dose-dependent inhibition”. For the same compound, the IC50 in the data set on TNF-α [1] was approximately 24 nM; in the data set with TNF-α [1] (same value in mass units), approximately 0.00655 µg/mL; in the data set with TNF-α [2] it was approximately 25 nM; in the data set on TNF-α [2] (same value in mass units), approximately 0.00683 µg/mL. For the same compound, the “Effect on production of the anti-inflammatory cytokine IL10” value with IL10 is “increased production”.

With `Nc1cccc2c1CN(C1CCC(=O)NC1=O)C2=O` (stereo not drawn) [Form A, 3-(4-amino-1-oxo-1,3 dihydro-isoindol-2-yl)-piperidene-2,6-dione], the “Stability / interconversion of the polymorphic form” value (“Stability / interconversion” for short) in data set [3] was “most thermodynamically stable anhydrous polymorph”. Also, the Hygroscopicity result in data set [4] is reported as “weakly or not hygroscopic”.

Turning to `Nc1cccc2c1CN(C1CCC(=O)NC1=O)C2=O` (stereo not drawn) [Form B, 3-(4-amino-1-oxo-1,3 dihydro-isoindol-2-yl)-piperidene-2,6-dione], in data set [3], the “Stability / interconversion” value is “converts to Form E in aqueous solvent systems”.

For the compound `Nc1cccc2c1CN(C1CCC(=O)NC1=O)C2=O` (stereo not drawn) [Form C, 3-(4-amino-1-oxo-1,3 dihydro-isoindol-2-yl)-piperidene-2,6-dione], the “Stability / interconversion” value in data set [3] was “can convert to Form B at higher relative humidities”. In data set [4], the Hygroscopicity result is reported as “not hygroscopic below about 85% RH”.

Regarding `Nc1cccc2c1CN(C1CCC(=O)NC1=O)C2=O` (stereo not drawn) [Form D, 3-(4-amino-1-oxo-1,3 dihydro-isoindol-2-yl)-piperidene-2,6-dione], the “Stability / interconversion” value in data set [3] is on record as “convert to Form B when stressed at higher relative humidities”. In addition, in data set [4], the Hygroscopicity entry is “either weakly or not hygroscopic”.

For `Nc1cccc2c1CN(C1CCC(=O)NC1=O)C2=O` (stereo not drawn) [Form E, 3-(4-amino-1-oxo-1,3 dihydro-isoindol-2-yl)-piperidene-2,6-dione], the “Stability / interconversion” value in data set [3] is listed as “In aqueous solvent systems, Form E appears to be the most stable form”.

The record behind these values is patent US20050100529A1, “Methods of using and compositions comprising immunomodulatory compounds for the treatment and management of asbestos-related diseases and disorders” (priority 2003, published 2005).
